Reference: publication PMC6100082, “Pyridine-Ureas as Potential Anticancer Agents: Synthesis and In Vitro Biological Evaluation” (Molecules : A Journal of Synthetic Chemistry and Natural …, 2018)

Columns and labels:
Format in all cases: cell-based, human
NCI-H23 = assay: NCI one-dose SRB assay (Non-Small Cell Lung Cancer); conditions: for inhibition at 10 µM: Homo sapiens, NCI-H23, 10 μM, read-out: Percentage growth inhibition (GI%); for Growth Percent: NCI-H23, 1.00E-5 Molar
Procedure, shortened: (§1)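 Human cancer cells are exposed for 48 h to one dose (10^−5 M) of test compound, then cell growth is measured by SRB protein assay. Data appear as GI%.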

A549/ATCC = assay: as above; conditions: for Growth Percent: 1.00E-5 Molar; for inhibition at 10 µM: Homo sapiens, read-out: Percentage growth inhibition (GI%)
Procedure, shortened: as §1

NCI-H460 = assay: as above; conditions: for inhibition at 10 µM: Homo sapiens, NCI-H460, 10 μM, read-out: Percentage growth inhibition (GI%); for Growth Percent: NCI-H460, 1.00E-5 Molar
Procedure, shortened: as §1

EKVX = assay: as above; conditions: for Growth Percent: 1.00E-5 Molar; for inhibition at 10 µM: Homo sapiens, read-out: Percentage growth inhibition (GI%)
Procedure, shortened: as §1

NCI-H226 = assay: as above; conditions: for inhibition at 10 µM: Homo sapiens, NCI-H226, 10 μM, read-out: Percentage growth inhibition (GI%); for Growth Percent: NCI-H226, 1.00E-5 Molar
Procedure, shortened: as §1

NCI-H522 = assay: as above; conditions: for inhibition at 10 µM: Homo sapiens, NCI-H522, 10 μM, read-out: Percentage growth inhibition (GI%); for Growth Percent: NCI-H522, 1.00E-5 Molar
Procedure, shortened: as §1

NCI-H322M = assay: as above; conditions: for Growth Percent: 1.00E-5 Molar; for inhibition at 10 µM: Homo sapiens, read-out: Percentage growth inhibition (GI%)
Procedure, shortened: as §1

HOP-62 = assay: as above; conditions: for Growth Percent: HOP-62, 1.00E-5 Molar; for inhibition at 10 µM: Homo sapiens, HOP-62, 10 μM, read-out: Percentage growth inhibition (GI%)
Procedure, shortened: as §1

HOP-92 = assay: as above; conditions: for Growth Percent: HOP-92, 1.00E-5 Molar; for inhibition at 10 µM: Homo sapiens, HOP-92, 10 μM, read-out: Percentage growth inhibition (GI%)
Procedure, shortened: as §1

SK-OV-3 = assay: NCI one-dose SRB assay (Ovarian Cancer); conditions: for inhibition at 10 µM: Homo sapiens, SK-OV-3, 10 μM, read-out: Percentage growth inhibition (GI%); for Growth Percent: SK-OV-3, 1.00E-5 Molar
Procedure, shortened: as §1

IGROV1 = assay: NCI one-dose SRB assay (Ovarian Cancer); conditions: for inhibition at 10 µM: Homo sapiens, IGROV-1, IGROV1, 10 μM, read-out: Percentage growth inhibition (GI%); for Growth Percent: IGROV1, 1.00E-5 Molar
Procedure, shortened: as §1

OVCAR-3 = assay: NCI one-dose SRB assay (Ovarian Cancer); conditions: for inhibition at 10 µM: Homo sapiens, OVCAR-3, 10 μM, read-out: Percentage growth inhibition (GI%); for Growth Percent: OVCAR-3, 1.00E-5 Molar
Procedure, shortened: as §1

OVCAR-8 = assay: NCI one-dose SRB assay (Ovarian Cancer); conditions: for inhibition at 10 µM: Homo sapiens, OVCAR-8, 10 μM, read-out: Percentage growth inhibition (GI%); for Growth Percent: OVCAR-8, 1.00E-5 Molar
Procedure, shortened: as §1

NCI/ADR-RES = assay: NCI one-dose SRB assay (Ovarian Cancer); conditions: for Growth Percent: 1.00E-5 Molar; for inhibition at 10 µM: Homo sapiens, read-out: Percentage growth inhibition (GI%)
Procedure, shortened: as §1

OVCAR-4 = assay: NCI one-dose SRB assay (Ovarian Cancer); conditions: for inhibition at 10 µM: Homo sapiens, OVCAR-4, 10 μM, read-out: Percentage growth inhibition (GI%); for Growth Percent: OVCAR-4, 1.00E-5 Molar
Procedure, shortened: as §1

OVCAR-5 = assay: NCI one-dose SRB assay (Ovarian Cancer); conditions: for inhibition at 10 µM: Homo sapiens, OVCAR-5, 10 μM, read-out: Percentage growth inhibition (GI%); for Growth Percent: OVCAR-5, 1.00E-5 Molar
Procedure, shortened: as §1

786-0 = assay: NCI one-dose SRB assay (Renal Cancer); conditions: for Growth Percent: 786-0, 1.00E-5 Molar; for inhibition at 10 µM: Homo sapiens, 786-0, 10 μM, read-out: Percentage growth inhibition (GI%)
Procedure, shortened: as §1

SN12C = assay: NCI one-dose SRB assay (Renal Cancer); conditions: for Growth Percent: 1.00E-5 Molar; for inhibition at 10 µM: Homo sapiens, read-out: Percentage growth inhibition (GI%)
Procedure, shortened: as §1

UO-31 = assay: NCI one-dose SRB assay (Renal Cancer); conditions: for inhibition at 10 µM: Homo sapiens, UO-31, 10 μM, read-out: Percentage growth inhibition (GI%); for Growth Percent: UO-31, 1.00E-5 Molar
Procedure, shortened: as §1

RXF 393 = assay: NCI one-dose SRB assay (Renal Cancer); conditions: for inhibition at 10 µM: Homo sapiens, RXF 393, 10 μM, read-out: Percentage growth inhibition (GI%); for Growth Percent: RXF 393, 1.00E-5 Molar
Procedure, shortened: as §1

TK-10 = assay: NCI one-dose SRB assay (Renal Cancer); conditions: for inhibition at 10 µM: Homo sapiens, TK-10, 10 μM, read-out: Percentage growth inhibition (GI%); for Growth Percent: TK-10, 1.00E-5 Molar
Procedure, shortened: as §1

A498 = assay: NCI one-dose SRB assay (Renal Cancer); conditions: for Growth Percent: A498, 1.00E-5 Molar; for inhibition at 10 µM: Homo sapiens, A498, 10 μM, read-out: Percentage growth inhibition (GI%)
Procedure, shortened: as §1

T-47D = assay: NCI one-dose SRB assay (Breast Cancer); conditions: for Growth Percent: 1.00E-5 Molar; for inhibition at 10 µM: Homo sapiens, T47D, read-out: Percentage growth inhibition (GI%)
Procedure, shortened: as §1

HS 578T = assay: NCI one-dose SRB assay (Breast Cancer); conditions: for Growth Percent: 1.00E-5 Molar; for inhibition at 10 µM: Homo sapiens, read-out: Percentage growth inhibition (GI%)
Procedure, shortened: as §1

BT-549 = assay: NCI one-dose SRB assay (Breast Cancer); conditions: for Growth Percent: BT-549, 1.00E-5 Molar; for inhibition at 10 µM: Homo sapiens, BT-549, 10 μM, read-out: Percentage growth inhibition (GI%)
Procedure, shortened: as §1

MDA-MB-468 = assay: NCI one-dose SRB assay (Breast Cancer); conditions: for inhibition at 10 µM: Homo sapiens, MDA-MB-468, 10 μM, read-out: Percentage growth inhibition (GI%); for Growth Percent: MDA-MB-468, 1.00E-5 Molar
Procedure, shortened: as §1

MDA-MB-231 = assay: NCI one-dose SRB assay (Breast Cancer); conditions: for inhibition at 10 µM: Homo sapiens, MDA-MB-231, 10 μM, read-out: Percentage growth inhibition (GI%); for Growth Percent: MDA-MB-231/ATCC, 1.00E-5 Molar
Procedure, shortened: as §1

MCF7 = assay: NCI one-dose SRB assay (Breast Cancer); conditions: for inhibition at 10 µM: Homo sapiens, MCF7, 10 μM, read-out: Percentage growth inhibition (GI%); for Growth Percent: MCF7, 1.00E-5 Molar
Procedure, shortened: as §1

COc1cccc(NC(=O)Nc2ccc(-c3ccc(OC)c(OC)c3)nc2C)c1 [Compound 8m, 1-(6-(3,4-Dimethoxyphenyl)-2-methylpyridin-3-yl)-3-(3-methoxyphenyl) Urea]
inhibition at 10 µM (NCI-H23): 10% | Growth Percent (NCI-H23): 90.97% | Growth Percent (A549/ATCC): 90.54% | inhibition at 10 µM (A549/ATCC): 10% | inhibition at 10 µM (NCI-H460): < 10% | Growth Percent (NCI-H460): 102.12% | Growth Percent (EKVX): 100.68% | inhibition at 10 µM (EKVX): < 10% | inhibition at 10 µM (NCI-H226): < 10% | Growth Percent (NCI-H226): 94.44% | inhibition at 10 µM (NCI-H522): 47% | Growth Percent (NCI-H522): 53.07% | Growth Percent (NCI-H322M): 95.22% | inhibition at 10 µM (NCI-H322M): < 10% | Growth Percent (HOP-62): 94.75% | inhibition at 10 µM (HOP-62): < 10% | Growth Percent (HOP-92): 81.00% | inhibition at 10 µM (HOP-92): 19% | inhibition at 10 µM (SK-OV-3): < 10% | Growth Percent (SK-OV-3): 99.49% | inhibition at 10 µM (IGROV1): < 10% | Growth Percent (IGROV1): 112.08% | inhibition at 10 µM (OVCAR-3): < 10% | Growth Percent (OVCAR-3): 101.69% | inhibition at 10 µM (OVCAR-8): < 10% | Growth Percent (OVCAR-8): 102.37% | Growth Percent (NCI/ADR-RES): 92.25% | inhibition at 10 µM (NCI/ADR-RES): < 10% | inhibition at 10 µM (OVCAR-4): < 10% | Growth Percent (OVCAR-4): 126.33% | inhibition at 10 µM (OVCAR-5): < 10% | Growth Percent (OVCAR-5): 104.54% | Growth Percent (786-0): 92.27% | inhibition at 10 µM (786-0): < 10% | Growth Percent (SN12C): 93.61% | inhibition at 10 µM (SN12C): < 10% | inhibition at 10 µM (UO-31): 20% | Growth Percent (UO-31): 80.45% | inhibition at 10 µM (RXF 393): < 10% | Growth Percent (RXF 393): 108.45% | inhibition at 10 µM (TK-10): < 10% | Growth Percent (TK-10): 96.16% | Growth Percent (A498): 85.18% | inhibition at 10 µM (A498): 15% | Growth Percent (T-47D): 81.11% | inhibition at 10 µM (T-47D): 19% | Growth Percent (HS 578T): 99.31% | inhibition at 10 µM (HS 578T): < 10% | Growth Percent (BT-549): 87.21% | inhibition at 10 µM (BT-549): 13% | inhibition at 10 µM (MDA-MB-468): < 10% | Growth Percent (MDA-MB-468): 99.00% | inhibition at 10 µM (MDA-MB-231): < 10% | Growth Percent (MDA-MB-231): 106.37% | inhibition at 10 µM (MCF7): 10% | Growth Percent (MCF7): 90.01%

COc1ccc(NC(=O)Nc2ccc(-c3ccc(OC)c(OC)c3)nc2C)cc1 [Compound 8n, 1-(6-(3,4-Dimethoxyphenyl)-2-methylpyridin-3-yl)-3-(4-methoxyphenyl) Urea]
inhibition at 10 µM (NCI-H23): 33% | Growth Percent (NCI-H23): 67.43% | Growth Percent (A549/ATCC): 57.02% | inhibition at 10 µM (A549/ATCC): 43% | inhibition at 10 µM (NCI-H460): 83% | Growth Percent (NCI-H460): 17.58% | Growth Percent (EKVX): 91.15% | inhibition at 10 µM (EKVX): < 10% | inhibition at 10 µM (NCI-H226): 42% | Growth Percent (NCI-H226): 58.04% | inhibition at 10 µM (NCI-H522): 51% | Growth Percent (NCI-H522): 49.88% | Growth Percent (NCI-H322M): 86.96% | inhibition at 10 µM (NCI-H322M): 14% | Growth Percent (HOP-62): 56.53% | inhibition at 10 µM (HOP-62): 44% | Growth Percent (HOP-92): 73.37% | inhibition at 10 µM (HOP-92): 27% | inhibition at 10 µM (SK-OV-3): 26% | Growth Percent (SK-OV-3): 74.76% | inhibition at 10 µM (IGROV1): 23% | Growth Percent (IGROV1): 77.14% | inhibition at 10 µM (OVCAR-3): < 10% | Growth Percent (OVCAR-3): 102.08% | inhibition at 10 µM (OVCAR-8): 53% | Growth Percent (OVCAR-8): 47.38% | Growth Percent (NCI/ADR-RES): 84.96% | inhibition at 10 µM (NCI/ADR-RES): 16% | inhibition at 10 µM (OVCAR-4): 71% | Growth Percent (OVCAR-4): 29.55% | inhibition at 10 µM (OVCAR-5): < 10% | Growth Percent (OVCAR-5): 98.04% | Growth Percent (786-0): 11.07% | inhibition at 10 µM (786-0): 89% | Growth Percent (SN12C): 64.38% | inhibition at 10 µM (SN12C): 36% | inhibition at 10 µM (UO-31): 19% | Growth Percent (UO-31): 81.72% | inhibition at 10 µM (RXF 393): 42% | Growth Percent (RXF 393): 58.20% | inhibition at 10 µM (TK-10): 40% | Growth Percent (TK-10): 60.42% | Growth Percent (A498): 71.94% | inhibition at 10 µM (A498): 29% | Growth Percent (T-47D): 60.36% | inhibition at 10 µM (T-47D): 40% | Growth Percent (HS 578T): 39.96% | inhibition at 10 µM (HS 578T): 61% | Growth Percent (BT-549): 50.44% | inhibition at 10 µM (BT-549): 50% | inhibition at 10 µM (MDA-MB-468): 17% | Growth Percent (MDA-MB-468): 83.00% | inhibition at 10 µM (MDA-MB-231): 60% | Growth Percent (MDA-MB-231): 40.48% | inhibition at 10 µM (MCF7): 35% | Growth Percent (MCF7): 65.14%
